Experimental findings from patent publication US20170335304A1, “OXIDIZED PROTEIN HYDROLASE ACTIVITY ENHANCING AGENT AND GLYCATION STRESS INHIBITOR” (ARKRAY, Inc., priority 2016, published 2017) are described below.

Holding throughout (format): biochemical
Assay [1] in a line: AGEs Cross-link Breaking Effect Confirmatory Test (Test 1). The following applies: 10 mmol/L PPD, pH 7.4, 37° C., eight hours; n=3; PTB 10 mmol/L. As to the method: The test was carried out according to the description in […] al. (Nature, 382, pp275-278 (1996)). […] A plant extract, 10 mmol/L of PPD, and 0.2 mol/L of phosphate buffer solution (pH 7.4) were mixed together at a ratio of 5:1:4 and then were reacted at 37° C. for eight hours (n=3). After completion of the reaction, hydrochloric acid was added thereto to stop the reaction and thus a reaction solution was obtained. […] The amount of benzoic acid contained in the reaction solution was determined by subtracting the amount of benzoic acid contained in the plant extract, which was measured separately. Since 1 mol of PPD produces 1 mol of benzoic acid, the cross-link breaking rate was calculated by the following formula. Cross-link breaking rate (%)={(A-B)/C}×100 • A: The amount of benzoic acid contained in the reaction solution • B: The amount of benzoic acid contained in the plant extract • C: The amount of PPD provided for the reaction (the amount of the substrate) As a control, a test was carried out using 10 mmol/L of PTB instead of the plant extract.

Assay [2] in a line: AGEs Cross-Link Breaking Effect Confirmatory Test (Test 3). The following applies: same measurement as Test 1, mixture solid content 7.42 mg/mL. As to the method: A plant extract, 10 mmol/L of PPD, and 0.2 mol/L of phosphate buffer solution (pH 7.4) were mixed together at a ratio of 5:1:4 and then were reacted at 37° C. for eight hours (n=3). After completion of the reaction, hydrochloric acid was added thereto to stop the reaction and thus a reaction solution was obtained. […] The amount of benzoic acid contained in the reaction solution was determined by subtracting the amount of benzoic acid contained in the plant extract, which was measured separately. Since 1 mol of PPD produces 1 mol of benzoic acid, the cross-link breaking rate was calculated by the following formula. Cross-link breaking rate (%)={(A−B)/C}×100 • A: The amount of benzoic acid contained in the reaction solution • B: The amount of benzoic acid contained in the plant extract • C: The amount of PPD provided for the reaction (the amount of the substrate) As a control, a test was carried out using 10 mmol/L of PTB instead of the plant extract. The same measurement as in the AGEs cross-link breaking effect confirmatory test (Test 1) was carried out except for using a mixture of plant extracts indicated in Table 6 below.

Assay [3] deals with AGEs modified bovine serum albumin (AGE-BSA) cross-linked to collagen (Bos taurus, UniProt P02769). The assay is described as follows: AGEs Cross-Link Breaking Effect Confirmatory Test (Test 2). The following applies: cross-link breaking reaction at 37° C. for 18 hours; punicalagin 5 mmol/L. As to the method:
The test was carried out according to the description in Sara Vasan et al. (Nature, 382, pp275-278 (1996)).
300 μL/well of SuperBlock T20 (PBS) Blocking Buffer was added to a commercially available 96-well microplate precoated with collagen, which then was reacted at 37° C. for one hour. After the reaction, it was washed with 0.05% polyethylene (20) sorbitan monolaurate (Tween 20)/PBS(-), and then AGEs modified bovine serum albumin (AGE-BSA) was added to each well of the microplate, which then was subjected to a crosslinking reaction at 37° C. for four hours. After the reaction, it was washed with Tween 20/PBS(-). Thereafter, a plant extract was added to each well and thereby it was subjected to a cross-link breaking (cleaving) reaction at 37° C. for 18 hours. After that, it was washed with Tween 20/PBS(-) and a primary antibody (anti-albumin bovine serum rabbit-polyclonal) was added thereto, which then was reacted at room temperature for 30 minutes. […] As a reaction stop solution, 1N HCl was added thereto, and the absorbance at 450 nm (dominant wavelength)/630 nm (complementary wavelength) was measured with a microplate reader. The amount of AGE-BSA that remained was determined from a calibration curve in which the amount of AGE-BSA was varied. Furthermore, the AGE-BSA decomposition rate (Collagen cross-link decomposition rate)was determined using the following formula. […]

The target of assay [4] is T1, Acylamino-acid releasing enzyme (AARE) (OPH) (Sus scrofa, UniProt P19205).
T1 construct: purchased Takara Bio Inc
T1 sequence (P19205 1-732): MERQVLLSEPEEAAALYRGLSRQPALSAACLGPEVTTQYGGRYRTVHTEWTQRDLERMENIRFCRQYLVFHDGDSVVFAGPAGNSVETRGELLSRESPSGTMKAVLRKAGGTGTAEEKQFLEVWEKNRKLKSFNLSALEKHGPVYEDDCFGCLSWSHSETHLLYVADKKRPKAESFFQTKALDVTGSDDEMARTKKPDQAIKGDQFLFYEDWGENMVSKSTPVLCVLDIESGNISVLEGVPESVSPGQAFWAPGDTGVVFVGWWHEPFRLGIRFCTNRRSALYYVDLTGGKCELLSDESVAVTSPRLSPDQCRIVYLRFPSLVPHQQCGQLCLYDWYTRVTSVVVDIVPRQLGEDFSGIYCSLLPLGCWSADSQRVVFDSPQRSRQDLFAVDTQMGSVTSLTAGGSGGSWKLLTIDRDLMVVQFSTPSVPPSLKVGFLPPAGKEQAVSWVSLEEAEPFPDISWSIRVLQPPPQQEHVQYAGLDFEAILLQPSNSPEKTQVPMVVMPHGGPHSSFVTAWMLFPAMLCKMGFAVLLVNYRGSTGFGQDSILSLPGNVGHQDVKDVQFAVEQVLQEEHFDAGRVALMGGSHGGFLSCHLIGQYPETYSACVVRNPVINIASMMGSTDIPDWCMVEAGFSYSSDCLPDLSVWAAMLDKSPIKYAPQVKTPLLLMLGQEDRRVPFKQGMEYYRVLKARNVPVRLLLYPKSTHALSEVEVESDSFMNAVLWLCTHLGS
The experiment in a line: OPH Activation Confirmatory Test (Test 2). The following applies: sample solution 5 mg/ml; 24 hours at 37° C.; relative to Ref without sample; n=3. The procedure:
To each plant indicated in Table 3 below, 15 times its amount of water was added and it was extracted at 100° C. for 30 minutes and then was solid-liquid separated and condensed. Thereafter, it was sterilized at 100° C. or higher for 30 minutes or less, which then was spray-dried. Thus, plant extract powders were obtained.
Each plant extract powder mentioned above was diluted with distilled water so as to be 5 mg/ml, which then was used as a sample solution. […]
The OPH Solution, the AAPA solution, and the sample solution (5 mg/mi) were mixed together to be added to each well of a 96-well microplate and then were reacted for 24 hours in an incubator set at 37° C. The absorbance at 405 nm of each reaction solution was measured with a microplate reader.
The enzyme activity of the OPH was determined as variation in absorbance (reaction rate) per hour (the OPH reaction rate of the sample). On the other hand, as a reference (Ref), the same measurement was carried out without adding the sample solution and then the reaction rate was determined (the OPH reaction rate of Ref). Using the OPH reaction rate of the sample and the OPH reaction rate of Ref, the OPH activation rate (%) was calculated from the following formula (n=3). […]

Sequence of AGEs modified bovine serum albumin (AGE-BSA) cross-linked to collagen (P02769 25-607): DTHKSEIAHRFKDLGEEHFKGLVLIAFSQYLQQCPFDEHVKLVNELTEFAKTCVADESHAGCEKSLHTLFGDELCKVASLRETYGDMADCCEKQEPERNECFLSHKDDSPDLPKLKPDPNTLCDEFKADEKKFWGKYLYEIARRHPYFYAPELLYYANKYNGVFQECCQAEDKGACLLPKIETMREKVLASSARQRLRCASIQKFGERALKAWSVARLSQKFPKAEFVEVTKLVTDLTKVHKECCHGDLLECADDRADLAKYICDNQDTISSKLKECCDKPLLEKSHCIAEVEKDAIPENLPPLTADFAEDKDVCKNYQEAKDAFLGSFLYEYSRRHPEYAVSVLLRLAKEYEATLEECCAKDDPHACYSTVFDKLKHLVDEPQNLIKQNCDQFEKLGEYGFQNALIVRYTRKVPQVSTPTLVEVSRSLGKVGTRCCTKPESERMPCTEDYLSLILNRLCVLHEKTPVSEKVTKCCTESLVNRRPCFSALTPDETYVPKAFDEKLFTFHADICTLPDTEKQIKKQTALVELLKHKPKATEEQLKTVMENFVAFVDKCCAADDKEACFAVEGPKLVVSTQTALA

As for `O=C(C[n+]1ccsc1)c1ccccc1.[Br-]` [PTB, N-phenacylthiazolium bromide], the “Cross-Link Breaking Rate (%) (Mean Value ± Standard Deviation)” value in assay [1] turned out to be 20.47 ± 0.29%; in assay [2], 25.34 ± 0.19%. As for `O=C1O[C@H]2[C@@H]3OC(=O)c4cc(O)c(O)c(O)c4-c4c(O)c(O)c5oc(=O)c6c(c(O)c(O)c7oc(=O)c4c5c76)-c4c(cc(O)c(O)c4O)C(=O)OC[C@H]3OC(O)[C@@H]2OC(=O)c2cc(O)c(O)c(O)c2-c2c1cc(O)c(O)c2O` (mixture of isomers) [Punicalagin], in assay [3], the “Amount of Remaining AGE-BSA” value is 343.3 ng and the “Collagen Cross-Link Decomposition Rate (%)” value turned out to be 65.7%. `O=C(O[C@@H]1Cc2c(O)cc(O)cc2O[C@@H]1c1cc(O)c(O)c(O)c1)c1cc(O)c(O)c(O)c1` [EGCg, Epigallocatechin gallate]: the “OPH Activation Rate (%) (Mean Value ± Standard Deviation)” value in assay [4] was 15.5 ± 3.2%.
